Patent US20240156874A1, “METHODS FOR GENERATING STEM CELL-DERIVED BETA CELLS AND USES THEREOF” (President and Fellows of Harvard College, priority 2014, published 2024)

Assays:
SC-β cells [1] = assay: In vitro SC-β cell function screen: stimulation index of SC-β cells generated with the agent; type: cell-based, human; settings: FIG. 1A
Procedure: Stimulation index=[insulin@20 mM glucose]/[insulin@2 mM glucose]. Relative Stim Index=Stim Index/Stim Index of Control.
FIG. 3 is a schematic illustration depicting an overview of the chemicals used and approach for the initial screen.

beta cells = settings: Table 1, background knowledge on the screened compounds; cited from earlier work
KDR (VEGFR-2) = KDR (VEGFR-2) (Homo sapiens, UniProt P35968); settings: cited from earlier work
KDR (VEGFR-2), sequence (P35968 20-1356, species assumed): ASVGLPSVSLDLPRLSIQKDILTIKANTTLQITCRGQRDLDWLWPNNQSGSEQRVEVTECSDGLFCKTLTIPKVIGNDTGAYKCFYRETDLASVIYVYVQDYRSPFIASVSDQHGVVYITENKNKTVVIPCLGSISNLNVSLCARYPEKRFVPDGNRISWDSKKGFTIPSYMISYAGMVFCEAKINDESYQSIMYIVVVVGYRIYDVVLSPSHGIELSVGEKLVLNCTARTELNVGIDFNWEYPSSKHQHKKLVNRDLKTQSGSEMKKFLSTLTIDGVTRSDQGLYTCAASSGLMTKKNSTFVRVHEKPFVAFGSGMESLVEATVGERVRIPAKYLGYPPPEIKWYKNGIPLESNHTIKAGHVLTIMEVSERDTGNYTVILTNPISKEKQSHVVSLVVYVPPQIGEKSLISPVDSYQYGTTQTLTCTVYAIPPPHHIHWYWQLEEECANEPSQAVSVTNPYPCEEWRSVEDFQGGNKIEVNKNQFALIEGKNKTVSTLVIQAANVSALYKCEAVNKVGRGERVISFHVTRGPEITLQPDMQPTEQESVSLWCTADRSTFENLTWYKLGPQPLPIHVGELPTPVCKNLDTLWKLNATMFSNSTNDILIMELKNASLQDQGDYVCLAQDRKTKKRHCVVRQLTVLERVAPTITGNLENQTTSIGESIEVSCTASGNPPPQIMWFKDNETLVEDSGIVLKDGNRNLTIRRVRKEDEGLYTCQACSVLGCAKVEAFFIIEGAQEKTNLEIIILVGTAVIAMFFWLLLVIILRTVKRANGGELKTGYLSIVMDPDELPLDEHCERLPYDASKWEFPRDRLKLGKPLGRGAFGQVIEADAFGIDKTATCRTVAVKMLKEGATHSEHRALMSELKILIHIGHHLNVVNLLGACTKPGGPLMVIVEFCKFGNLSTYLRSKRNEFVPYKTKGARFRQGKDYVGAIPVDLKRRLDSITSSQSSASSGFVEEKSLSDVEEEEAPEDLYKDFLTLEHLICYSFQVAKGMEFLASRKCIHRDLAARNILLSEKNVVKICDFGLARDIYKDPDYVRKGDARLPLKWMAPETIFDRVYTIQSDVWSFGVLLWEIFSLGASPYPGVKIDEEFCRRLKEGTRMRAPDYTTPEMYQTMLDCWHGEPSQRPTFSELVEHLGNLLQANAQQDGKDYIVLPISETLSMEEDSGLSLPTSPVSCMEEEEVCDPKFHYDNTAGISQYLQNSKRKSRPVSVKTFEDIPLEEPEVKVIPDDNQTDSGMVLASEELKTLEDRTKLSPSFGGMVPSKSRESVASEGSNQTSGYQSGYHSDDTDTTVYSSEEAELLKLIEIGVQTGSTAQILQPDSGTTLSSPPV

ALK5 = biological target: T1, ALK5 (Homo sapiens, UniProt P36897); settings: cited from earlier work
T1 sequence (P36897 34-503): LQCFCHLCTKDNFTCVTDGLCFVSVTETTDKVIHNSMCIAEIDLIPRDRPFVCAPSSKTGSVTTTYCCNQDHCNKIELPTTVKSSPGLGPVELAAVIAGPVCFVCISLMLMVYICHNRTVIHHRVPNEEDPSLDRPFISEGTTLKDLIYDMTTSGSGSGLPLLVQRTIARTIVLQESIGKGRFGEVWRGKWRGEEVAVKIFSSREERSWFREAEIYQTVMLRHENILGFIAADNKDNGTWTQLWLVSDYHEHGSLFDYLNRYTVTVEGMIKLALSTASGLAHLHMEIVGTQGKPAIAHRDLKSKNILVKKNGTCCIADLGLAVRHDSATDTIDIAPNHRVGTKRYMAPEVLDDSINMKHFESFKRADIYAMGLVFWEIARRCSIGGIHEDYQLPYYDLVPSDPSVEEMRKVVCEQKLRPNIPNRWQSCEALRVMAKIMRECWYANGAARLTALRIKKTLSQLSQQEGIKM

AMPK = settings: cited from earlier work
PDGFRβ = PDGFRβ (Homo sapiens, UniProt P09619); settings: cited from earlier work
PDGFRβ, sequence (P09619 33-1106, species assumed): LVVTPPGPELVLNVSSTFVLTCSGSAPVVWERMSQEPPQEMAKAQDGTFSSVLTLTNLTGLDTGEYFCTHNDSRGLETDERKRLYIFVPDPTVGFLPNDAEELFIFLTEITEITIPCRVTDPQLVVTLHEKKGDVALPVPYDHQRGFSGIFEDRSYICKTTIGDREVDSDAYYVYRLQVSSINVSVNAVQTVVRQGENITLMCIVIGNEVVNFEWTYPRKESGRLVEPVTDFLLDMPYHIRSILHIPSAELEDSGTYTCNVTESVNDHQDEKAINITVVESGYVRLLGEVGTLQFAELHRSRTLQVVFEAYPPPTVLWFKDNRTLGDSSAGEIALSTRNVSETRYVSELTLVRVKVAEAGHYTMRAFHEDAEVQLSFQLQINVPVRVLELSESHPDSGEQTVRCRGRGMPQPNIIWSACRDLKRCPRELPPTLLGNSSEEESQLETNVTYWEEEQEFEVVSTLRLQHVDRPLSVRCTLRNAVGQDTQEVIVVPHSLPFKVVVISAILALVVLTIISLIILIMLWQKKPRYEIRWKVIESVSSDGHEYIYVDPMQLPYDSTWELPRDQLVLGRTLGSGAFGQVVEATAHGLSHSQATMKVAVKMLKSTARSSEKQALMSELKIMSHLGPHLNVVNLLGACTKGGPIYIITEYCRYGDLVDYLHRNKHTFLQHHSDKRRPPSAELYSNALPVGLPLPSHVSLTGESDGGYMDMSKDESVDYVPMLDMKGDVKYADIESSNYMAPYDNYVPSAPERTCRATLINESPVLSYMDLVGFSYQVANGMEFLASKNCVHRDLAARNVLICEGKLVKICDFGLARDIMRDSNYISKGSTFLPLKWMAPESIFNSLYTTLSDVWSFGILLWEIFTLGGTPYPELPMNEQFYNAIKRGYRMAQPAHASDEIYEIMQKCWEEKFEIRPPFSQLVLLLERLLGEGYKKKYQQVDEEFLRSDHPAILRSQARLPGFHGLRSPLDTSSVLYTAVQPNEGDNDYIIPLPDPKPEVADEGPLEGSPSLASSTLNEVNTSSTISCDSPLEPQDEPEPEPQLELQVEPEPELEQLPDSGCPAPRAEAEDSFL

[2] = system: BMP4-induced phosphorylation of Smads 1, 5 and 8; settings: HEK293 cells; cited from earlier work
SC-β cells [3] = assay: In vivo function of SC-β cells generated with the agents, after transplantation into mice
Excerpt: FIG. 4B is a Table quantifying the improvement in stimulation index and mean 30′ insulin post injection illustrated in FIG. 4A.
FIG. 5B is a Table quantifying the improvement in stimulation index and mean 30′ insulin post injection illustrated in FIG. 5A.

TGFRII = TGFRII (Homo sapiens, UniProt P37173); settings: relative to TGFRI kinase (ALK5); cited from earlier work
TGFRII, sequence (P37173 23-567): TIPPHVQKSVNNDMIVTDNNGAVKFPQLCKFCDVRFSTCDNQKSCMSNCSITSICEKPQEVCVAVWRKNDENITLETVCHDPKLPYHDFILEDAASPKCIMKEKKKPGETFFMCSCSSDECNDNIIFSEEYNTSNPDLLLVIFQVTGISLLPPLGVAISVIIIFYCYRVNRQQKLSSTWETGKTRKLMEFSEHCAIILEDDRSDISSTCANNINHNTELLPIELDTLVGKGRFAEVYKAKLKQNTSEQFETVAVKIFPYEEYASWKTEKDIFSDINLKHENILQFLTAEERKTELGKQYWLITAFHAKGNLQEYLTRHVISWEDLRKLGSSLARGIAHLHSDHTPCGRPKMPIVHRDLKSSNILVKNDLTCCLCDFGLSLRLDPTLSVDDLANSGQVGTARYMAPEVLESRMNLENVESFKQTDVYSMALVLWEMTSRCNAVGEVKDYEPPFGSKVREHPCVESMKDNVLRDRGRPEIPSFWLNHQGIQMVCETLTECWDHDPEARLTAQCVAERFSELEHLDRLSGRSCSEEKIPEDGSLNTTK

[4] = system: p38a, p38b, p38d, JNK1, EGFR, MAPKAPK2, MKK6, ERK2, PKC, PKA, PKD, CDC2, and CaMKII; settings: relative to TGFRI kinase (ALK5); cited from earlier work

Compound | Stimulation index of resulting SC-β cells relative to control SC-β cells (SC-β cells [1]; concentration not given) | Effect on Beta Cells (beta cells) | further results
Cc1cccc(-c2nn(C(=S)Nc3ccccc3)cc2-c2ccnc3ccccc23)n1 [A83-01] | worse stimulation indices | Reduces apoptosis of pancreatic beta cells, increases insulin | 
CC(C)Oc1ccc(-c2cnc3c(-c4ccnc5ccccc45)cnn3c2)cc1 [DMH-1, 4-[6-[4-(1-Methylethoxy)phenyl]pyrazolo[1,5-a]pyrimidin-3-yl]-quinoline] |  | Aids differentiation of zebrafish beta cells | Inhibition of KDR (VEGFR-2) (KDR (VEGFR-2)): no detectable inhibition; Inhibition of ALK5 (ALK5): no detectable inhibition; Inhibition of AMPK (AMPK): no detectable inhibition; Inhibition of PDGFRβ receptors (PDGFRβ): no detectable inhibition; Stimulation index of resulting SC-β cells relative to control SC-β cells (SC-β cells [1]; agent 1 μM, Stimulation index=[insulin@20 mM glucose]/[insulin@2 mM glucose]): greater stimulation index; Effect on BMP4-induced phosphorylation of Smads 1, 5 and 8 [2]: block BMP4-induced phosphorylation of Smads 1, 5 and 8; In vivo function of SC-β cells generated using the agent(s) (SC-β cells [3]; 2 weeks post-transplantation into mice, FIG. 4A): improved in vivo function; In vivo function of SC-β cells generated using the agent(s) (SC-β cells [3]; 4 weeks post-transplantation into mice, FIG. 5A): improved in vivo function
Oc1ccc(-c2nc(-c3ccc(F)cc3)c(-c3ccncc3)[nH]2)cc1 [SB202190] | worse stimulation indices | Reduced apoptosis in beta cells | 
C[S+]([O-])c1ccc(-c2nc(-c3ccc(F)cc3)c(-c3ccncc3)[nH]2)cc1 (stereo not drawn) [SB203580] | worse stimulation indices | Reduced apoptosis in beta cells | 
NC(=O)c1ccc(-c2nc(-c3ccc4c(c3)OCO4)c(-c3ccccn3)[nH]2)cc1 [SB431542, 4-[4-(1,3-benzodioxol-5-yl)-5-(2-pyridinyl)-111-imidazol-2-yl]benzamide] |  | Reduces apoptosis of pancreatic beta cells, increases insulin | 
Fc1ccc(Cl)cc1-c1nc(Nc2ccncc2)c2nccnc2n1 [SD208] |  | Helps maintain growth of human pancreatic cancer cells | Specificity against TGFRII (TGFRII): > 100 fold; Specificity over members of a panel of related protein kinases [4]: at least 17 fold
N#CC(=C(/N)Sc1ccccc1N)/C(C#N)=C(\N)Sc1ccccc1N [U0126] | worse stimulation indices | Reduced apoptosis in beta cells | 
